PMC10379611 (International Journal of Molecular Sciences, 2023)

Columns and labels:
ABCC4 (MRP4) = target: T1, ABCC4 (MRP4) (Homo sapiens, UniProt O15439); experiment: ABCC4 vesicular transport (DHEAS), HEK293 inverted membrane vesicles; format: biochemical; details: concentrations up to 200 μM
T1 construct: purchased Solvo Biotechnology, Budapest; host or cells: HEK293
T1 sequence (O15439 1-1325): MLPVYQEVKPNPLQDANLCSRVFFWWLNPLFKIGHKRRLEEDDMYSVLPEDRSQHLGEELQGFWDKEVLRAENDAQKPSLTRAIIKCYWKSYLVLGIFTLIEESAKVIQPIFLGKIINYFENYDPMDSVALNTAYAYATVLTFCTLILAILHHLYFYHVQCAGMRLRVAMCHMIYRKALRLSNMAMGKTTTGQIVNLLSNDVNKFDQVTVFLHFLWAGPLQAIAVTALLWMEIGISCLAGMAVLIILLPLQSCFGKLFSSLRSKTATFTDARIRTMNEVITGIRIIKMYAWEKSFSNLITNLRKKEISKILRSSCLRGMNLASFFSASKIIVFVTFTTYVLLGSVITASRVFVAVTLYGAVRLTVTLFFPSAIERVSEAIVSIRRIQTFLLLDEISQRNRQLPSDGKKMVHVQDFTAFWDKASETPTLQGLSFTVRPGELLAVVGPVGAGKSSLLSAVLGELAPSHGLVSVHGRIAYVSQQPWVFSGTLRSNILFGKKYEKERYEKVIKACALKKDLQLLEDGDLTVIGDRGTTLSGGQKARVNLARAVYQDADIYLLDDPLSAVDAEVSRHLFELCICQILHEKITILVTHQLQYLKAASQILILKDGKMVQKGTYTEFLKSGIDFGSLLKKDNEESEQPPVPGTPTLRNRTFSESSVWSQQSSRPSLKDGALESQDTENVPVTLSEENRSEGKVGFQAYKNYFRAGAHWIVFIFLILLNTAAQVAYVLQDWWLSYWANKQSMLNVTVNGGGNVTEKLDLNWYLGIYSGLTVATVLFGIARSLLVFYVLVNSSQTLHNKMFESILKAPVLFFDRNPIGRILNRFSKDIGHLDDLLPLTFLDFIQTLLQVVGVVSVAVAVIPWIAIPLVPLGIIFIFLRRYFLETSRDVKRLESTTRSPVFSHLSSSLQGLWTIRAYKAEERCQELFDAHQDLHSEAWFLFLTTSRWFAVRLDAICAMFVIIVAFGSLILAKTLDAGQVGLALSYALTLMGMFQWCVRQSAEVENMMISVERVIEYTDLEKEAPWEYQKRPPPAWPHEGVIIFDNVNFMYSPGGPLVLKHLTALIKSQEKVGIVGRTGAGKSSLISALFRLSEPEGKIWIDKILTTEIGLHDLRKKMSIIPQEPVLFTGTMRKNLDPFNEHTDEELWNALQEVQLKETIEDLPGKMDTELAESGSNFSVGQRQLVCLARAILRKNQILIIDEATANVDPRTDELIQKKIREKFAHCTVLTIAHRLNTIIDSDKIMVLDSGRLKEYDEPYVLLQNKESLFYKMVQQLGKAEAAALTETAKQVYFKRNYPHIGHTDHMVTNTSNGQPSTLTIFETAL

CNT1 = target: T2, CNT1 (Homo sapiens, UniProt O00337); experiment: CNT1-mediated uridine uptake in CNT1-MDCKII cells; format: cell-based; details: for IC50: MDCKII cells, 1 µM uridine
T2 construct: expressed in transfected cells; host or cells: MDCKII (lentiviral transduction)
T2 sequence (O00337 1-649): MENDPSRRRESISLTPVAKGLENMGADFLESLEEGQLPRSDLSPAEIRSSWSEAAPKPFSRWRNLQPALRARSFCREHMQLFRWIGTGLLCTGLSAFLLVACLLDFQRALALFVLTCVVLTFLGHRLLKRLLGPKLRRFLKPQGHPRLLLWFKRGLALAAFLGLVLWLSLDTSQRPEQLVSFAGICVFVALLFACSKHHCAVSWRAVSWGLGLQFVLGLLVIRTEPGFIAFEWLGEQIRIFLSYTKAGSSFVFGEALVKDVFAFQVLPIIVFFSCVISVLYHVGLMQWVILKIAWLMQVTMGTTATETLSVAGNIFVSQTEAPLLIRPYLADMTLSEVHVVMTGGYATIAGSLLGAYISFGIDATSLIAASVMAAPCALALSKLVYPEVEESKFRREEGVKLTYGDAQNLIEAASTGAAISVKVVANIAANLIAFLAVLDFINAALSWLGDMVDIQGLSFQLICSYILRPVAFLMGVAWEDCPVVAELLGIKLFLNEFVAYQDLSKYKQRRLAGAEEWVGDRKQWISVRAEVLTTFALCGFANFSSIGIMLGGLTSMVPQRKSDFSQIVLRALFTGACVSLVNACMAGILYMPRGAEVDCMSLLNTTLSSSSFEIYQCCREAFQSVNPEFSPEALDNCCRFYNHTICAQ
Procedure: ENT and CNT transporter interactions were investigated in transporter-overexpressing cell lines. Madin-Darby Canine Kidney II (MDCKII) cell lines overexpressing the human uptake transporters CNT1, CNT2, ENT1, and ENT2 were generated via lentiviral transduction. Cell cultures were maintained in Dulbecco’s modified Eagle’s medium (DMEM) and 4500 mg/L of glucose supplemented with GlutaMax^TM, 10% v/v fetal bovine serum (FBS), 100 units/mL penicillin, and 100 µg/mL streptomycin (all from Gibco/ThermoFisher, Waltham, MA, USA) at 37 °C in 5% CO2 at 95% humidity. For uptake inhibition assays, transporter-expressing cells and mock-transduced control cells were seeded on 96-well tissue culture plates at a density of 1 × 10^5 cells/well. Twenty-four hours after seeding, cells were rinsed twice with Krebs-Henseleit buffer (KH buffer, pH 7.4) and then preincubated for 30 min with solutions containing serial dilutions of the test compounds in KH at room temperature. Following preincubation, the solutions were removed, the cells were rinsed twice with KH buffer, and coincubation was started with a suitable radiolabeled substrate and the diluted series of test compounds. Assay conditions were as follows: 1 µM uridine (traced with 0.1 µCi ^3H-Uridine/well), 30 s (CNT1), and 1 min (CNT2, ENT1) incubations; 1 µM adenosine (traced with 0.1 µCi ^3H-Adenosine/well) and 2 min (ENT2) incubation. All experiments were conducted at room temperature. […] Uptake was terminated by rinsing twice with ice-cold KH buffer, and cells were lysed with 0.1 M NaOH. To determine the amounts of accumulated radiolabeled substrates, cell lysates mixed with a liquid scintillation cocktail were measured with a MicroBeta2 microplate counter (PerkinElmer, Singapore).
Transporter-specific accumulation of the probe substrate was calculated using the following formula: ACCSpec = ACCTRP − ACCMock, where ACCTRP is the accumulation of the probe in transporter-expressing cells and ACCMock is the accumulation of the probe in control cells. Relative transporter-specific accumulation values were calculated as percentages of the control value (with vehicle only).

SMILES | effect on ATP-dependent DHEAS uptake by ABCC4/MRP4 (ABCC4 (MRP4)) | IC50 (CNT1) [µM] | inhibition of CNT1-mediated uridine uptake (CNT1; at 200 μM) | inhibition at 200 µM (CNT1; read-out: inhibition of CNT1-mediated uridine uptake) [%]
O=c1nc(NO)ccn1[C@@H]1O[C@H](CO)[C@@H](O)[C@H]1O [EIDD-1931] | no significant effects | 18.8 | approximately 80% | 
CC(C)C(=O)OC[C@H]1O[C@@H](n2ccc(NO)nc2=O)[C@H](O)[C@@H]1O [EIDD-2801, Molnupiravir] | no significant effects | 84.9 |  | ~80
